Laboratory results from article PMC4627091 (2015).

Key:
[1] = system: Spinach with GUGA tetraloop (RNA, aptamer) GGGAACACAAUAAUAAAACUUACAAACAAGAAAAAAAAGACGCGACUGAAUGAAAUGGUGAAGGACGGGUCCAGCUGCGUGAGCAGCUUGUUGAGUAGAGUGUGAGCUCCGUAACUAGUCGCGUC; experiment: on-chip fluorescence; conditions: 125 mM KCl, 5 mM MgCl2; loss of fluorescence attributed to misfolding; up to 43.5 μM DFHBI
[2] = system: wt Spinach with anchor sequence (in solution) (RNA, aptamer) GGGAACACAAUAAUAAAACUUACAAACAAGAAAAAAAAGACGCGACUGAAUGAAAUGGUGAAGGACGGGUCCAGCUGCUUCGGCAGCUUGUUGAGUAGAGUGUGAGCUCCGUAACUAGUCGCGUC; experiment: solution binding assay (off chip); conditions: buffer and temperature not stated
[3] = system: wt Spinach without anchor sequence (in solution) (RNA, aptamer) GACGCGACUGAAUGAAAUGGUGAAGGACGGGUCCAGCUGCUUCGGCAGCUUGUUGAGUAGAGUGUGAGCUCCGUAACUAGUCGCGUC; experiment: solution binding assay (off chip); conditions: buffer and temperature not stated
[4] = system: Spinach with GAAA tetraloop (RNA, aptamer) GGGAACACAAUAAUAAAACUUACAAACAAGAAAAAAAAGACGCGACUGAAUGAAAUGGUGAAGGACGGGUCCAGCUGCGAAAGCAGCUUGUUGAGUAGAGUGUGAGCUCCGUAACUAGUCGCGUC; experiment: on-chip fluorescence titration and melting; conditions: 125 mM KCl, 5 mM MgCl2; 40 mM HEPES, 5% DMSO; comparable to UUCG loop; immobilised RNA
[5] = system: wt Spinach (87-nt, on chip, with 5' capture tag) (RNA, aptamer) GGGAACACAAUAAUAAAACUUACAAACAAGAAAAAAAAGACGCGACUGAAUGAAAUGGUGAAGGACGGGUCCAGCUGCUUCGGCAGCUUGUUGAGUAGAGUGUGAGCUCCGUAACUAGUCGCGUC; experiment: on-chip fluorescence titration (mLSI pull-down); conditions: 125 mM KCl, 5 mM MgCl2; 40 mM HEPES, 5% DMSO; temperature of this value not stated (19-28°C series); immobilised RNA
[6] = system: Spinach U50C (RNA, aptamer) GGGAACACAAUAAUAAAACUUACAAACAAGAAAAAAAAGACGCGACUGAAUGAAAUGGUGAAGGACGGGUCCAGCUGCUUCGGCAGCCUGUUGAGUAGAGUGUGAGCUCCGUAACUAGUCGCGUC; experiment: on-chip fluorescence titration (mLSI pull-down); conditions: 125 mM KCl, 5 mM MgCl2; 40 mM HEPES, 5% DMSO; temperature of this value not stated; immobilised RNA

- binding [1]: no
- Kd [2]: 680 nM
- Kd [3]: 530 nM
- binding [4]: yes
- Kd [5]: 1180 nM
- Kd [6]: 450 nM
Compound: CC1=N/C(=C\c2cc(F)c(O)c(F)c2)C(=O)N1C
